The values that follow come from patent publication US7265103B2, “Substituted amino isoxazoline derivatives and their use as anti-depressants” (Janssen Pharmaceutica NV., priority 2002, dated 2007).

In one assay the target is T1, hα2C receptor (Homo sapiens, UniProt P18825).
T1 construct: expressed in transfected cells; host or cells: CHO cells
T1 sequence (P18825 1-462): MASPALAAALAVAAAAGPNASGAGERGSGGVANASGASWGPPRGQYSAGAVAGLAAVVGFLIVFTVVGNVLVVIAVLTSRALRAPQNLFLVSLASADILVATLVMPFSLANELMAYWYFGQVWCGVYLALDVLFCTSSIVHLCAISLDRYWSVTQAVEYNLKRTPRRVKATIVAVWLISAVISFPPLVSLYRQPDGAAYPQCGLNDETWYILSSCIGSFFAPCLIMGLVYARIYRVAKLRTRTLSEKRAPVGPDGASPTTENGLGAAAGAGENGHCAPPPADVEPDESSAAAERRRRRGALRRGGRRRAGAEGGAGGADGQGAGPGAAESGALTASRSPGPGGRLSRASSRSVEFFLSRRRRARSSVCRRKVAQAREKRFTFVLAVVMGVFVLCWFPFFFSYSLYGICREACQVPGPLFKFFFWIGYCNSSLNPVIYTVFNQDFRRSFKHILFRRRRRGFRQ
The experiment in a line: Radioligand binding experiment for α2C-adrenergic receptor ([3H]-raulwolscine). The note with it: CHO cell membranes with human α2C receptor, [3H]raulwolscine 1 nM; read-out: pIC50 α2C (converted). Here is the method:
(§1) The interaction of the compounds of Formula (I) with hα2-receptors and h5-HT-transporters was assessed in in vitro radioligand binding experiments. In general, a low concentration of a radioligand with a high binding affinity for a particular receptor or transporter is incubated with a sample of a tissue preparation enriched in a particular receptor or transporter or with a preparation of cells expressing cloned human receptors in a buffered medium. During the incubation, the radioligand binds to the receptor or transporter. When equilibrium of binding is reached, the receptor bound radioactivity is separated from the non-bound radioactivity, and the receptor- or transporter-bound activity is counted. The interaction of the test compounds with the receptor is assessed in competition binding experiments. Various concentrations of the test compound are added to the incubation mixture containing the receptor- or transporter preparation and the radioligand. The test compound in proportion to its binding affinity and its concentration inhibits binding of the radioligand. The radioligand used for hα2A, hα2B and hα2C receptor binding was [^3H]-raulwolscine and for the h5-HT transporter was [^3H]paroxetine.
(§2) CHO cells, stabile transfected with human adrenergic-α2A-, -α2B or α2C receptor cDNA, were cultured in Dulbecco's Modified Eagle's Medium (DMEM)/Nutrient mixture Ham's F12 (ratio 1:1)(Gibco, Gent-Belgium) supplemented with 10% heat inactivated fetal calf serum (Life Technologies, Merelbeke-Belgium) and antibiotics (100 IU/ml penicillin G, 100 μg/ml streptomycin sulphate, 110 μg/ml pyruvic acid and 100 μg/ml L-glutamine). One day before collection, cells were induced with 5 mM sodiumbutyrate. Upon 80-90% of confluence, cells were scraped in phosphate buffered saline without Ca^2+ and Mg^2+ and collected by centrifugation at 1500×g for 10 min. The cells were homogenised in Tris-HCl 50 mM using an Ultraturrax homogenizer and centrifuged for 10 min at 23,500×g. The pellet was washed once by resuspension and rehomogenization and the final pellet was resuspended in Tris-HCl, divided in 1 ml aliquots and stored at −70° C.
(§3) Membranes were thawed and re-homogenized in incubation buffer (glycylglycine 25 mM, pH 8.0). In a total volume of 500 μl, 2-10 μg protein was incubated with [^3H]raulwolscine (NET-722) (New England Nuclear, USA) (1 nM final concentration) with or without competitor for 60 min at 25° C. followed by rapid filtration over GF/B filter using a Filtermatel 96 harvester (Packard, Meriden, Conn.). Filters were rinsed extensively with ice-cold rinsing buffer (Tris-HCl 50 mM pH 7.4). Filter-bound radioactivity was determined by scintillation counting in a Topcount (Packard, Meriden, Conn.) and results were expressed as counts per minute (cpm). Non-specific binding was determined in the presence of 1 μM oxymetazoline for hα2A- and hα2B receptors and 1 μM spiroxatrine for hα2C receptors.
(§4) Data from assays in the presence of compound were calculated as a percentage of total binding measured in the absence of test compound. Inhibition curves, plotting percent of total binding versus the log value of the concentration of the test compound, were automatically generated, and sigmoidal inhibition curves were fitted using non-linear regression. The pIC50 values of test compounds were derived from individual curves.

For another assay, the target named is T2, h5-HT transporter (Homo sapiens, UniProt P31645).
T2 construct: Human platelet membranes (Oceanix Biosciences Corporation, Hanover, Md., USA) were thawed; tissue Oceanix Biosciences Corporation; host or cells: human platelet membranes
T2 sequence (P31645 whole entry): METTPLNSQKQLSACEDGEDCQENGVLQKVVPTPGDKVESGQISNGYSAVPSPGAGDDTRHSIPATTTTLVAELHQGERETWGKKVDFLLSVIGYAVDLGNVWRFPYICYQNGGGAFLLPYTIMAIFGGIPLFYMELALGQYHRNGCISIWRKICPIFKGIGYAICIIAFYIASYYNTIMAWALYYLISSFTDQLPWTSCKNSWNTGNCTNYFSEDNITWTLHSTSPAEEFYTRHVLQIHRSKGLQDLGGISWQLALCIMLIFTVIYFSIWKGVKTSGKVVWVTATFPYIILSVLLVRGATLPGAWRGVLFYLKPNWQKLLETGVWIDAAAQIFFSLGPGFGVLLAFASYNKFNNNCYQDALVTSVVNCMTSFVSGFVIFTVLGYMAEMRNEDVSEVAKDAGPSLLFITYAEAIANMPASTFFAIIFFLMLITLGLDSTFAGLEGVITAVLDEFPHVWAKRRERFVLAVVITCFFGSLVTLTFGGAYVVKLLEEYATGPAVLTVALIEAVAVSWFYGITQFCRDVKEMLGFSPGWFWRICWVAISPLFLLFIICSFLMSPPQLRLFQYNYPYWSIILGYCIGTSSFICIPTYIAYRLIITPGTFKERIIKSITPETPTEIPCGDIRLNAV
The experiment in a line: Radioligand binding experiment for 5-HT transporter ([3H]paroxetine). The note with it: human platelet membranes, [3H]paroxetine 0.5 nM. Here is the method: as §1
Human platelet membranes (Oceanix Biosciences Corporation, Hanover, Md., USA) were thawed, diluted in buffer (Tris-HCl 50 mM, 120 mM NaCl and 5 mM KCl) and quickly (max 3 s) homogenised with an Ultraturrax homogenizer. In a total volume of 250 μL, 50-100 μg protein was incubated with [^3H]paroxetine (NET-869) (New England Nuclear, USA) (0.5 nM final concentration) with or without competitor for 60 min at 25° C. Incubation was stopped by rapid filtration of the incubation mixture over GF/B filters, pre-wetted with 0.1% polyethyleneamine, using a Filtermatel 96 harvester (Packard, Meriden, Conn.). Filters were rinsed extensively with ice-cold buffer and radioactivity on the filters was counted in a Topcount liquid scintillation counter (Packard, Meriden, Conn.). Data were expressed as cpm. Imipramine (at 1 μM final concentration) was used to determine the non-specific binding.
as §4

Another assay addresses T3, hα2A receptor (Homo sapiens, UniProt P08913).
T3 construct: expressed in transfected cells; host or cells: CHO cells
T3 sequence (P08913 1-465): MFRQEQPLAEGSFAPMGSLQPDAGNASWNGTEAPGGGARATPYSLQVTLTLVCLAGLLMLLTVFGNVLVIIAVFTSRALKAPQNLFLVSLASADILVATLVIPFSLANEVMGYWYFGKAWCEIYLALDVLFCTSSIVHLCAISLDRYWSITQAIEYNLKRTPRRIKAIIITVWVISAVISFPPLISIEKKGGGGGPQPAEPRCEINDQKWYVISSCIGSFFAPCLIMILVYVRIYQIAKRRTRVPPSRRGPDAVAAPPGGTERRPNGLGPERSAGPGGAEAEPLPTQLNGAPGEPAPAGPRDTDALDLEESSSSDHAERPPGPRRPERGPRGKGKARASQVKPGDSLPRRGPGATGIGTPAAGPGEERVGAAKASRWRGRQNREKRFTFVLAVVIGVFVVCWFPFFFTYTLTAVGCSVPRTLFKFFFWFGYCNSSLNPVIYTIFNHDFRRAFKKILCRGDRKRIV
The experiment in a line: Radioligand binding experiment for α2A-adrenergic receptor ([3H]-raulwolscine). The note with it: CHO cell membranes with human α2A receptor, [3H]raulwolscine 1 nM; read-out: pIC50 α2A (converted). Here is the method: as §1, §2, §3, §4

On to `COc1cc2c(cc1N(C)CCO)OCC1C2=NOC1CN1CCN(CC(C)=Cc2ccc(F)cc2)CC1` (stereo not drawn) [Compound 39], for which the IC50 was 10 nM on hα2C receptor, 79.4 nM at h5-HT transporter and 50.1 nM on hα2A receptor.

With `CC(=Cc1ccccc1)CN1CCN(CC2ON=C3c4ccc(N(C)Cc5ccccc5)cc4OCC32)CC1` (stereo not drawn) [Compound 47], the IC50 on hα2C receptor is 3.16 nM; at h5-HT transporter, 50.1 nM; at hα2A receptor it was 2.51 nM.

As for `CC(=Cc1ccccc1)CN1CCN(CC2ON=C3c4ccc(N(C)Cc5ccccc5)cc4OCC32)CC1` (stereo not drawn) [Compound 48], the IC50 on hα2C receptor is 31.6 nM; at h5-HT transporter, 158 nM; at hα2A receptor, 39.8 nM.

Turning to `COc1cc2c(cc1NC(C)=O)OCC1C2=NOC1CN1CCN(CC(C)=Cc2cccc(F)c2)CC1` (stereo not drawn) [Compound 49], the IC50 was 0.251 nM at hα2C receptor, 7.94 nM at h5-HT transporter and 1.26 nM at hα2A receptor.

In the case of `CC(=Cc1ccccc1)CN1CCN(CC2ON=C3c4ccc(NC(=O)C5CC5)cc4OCC32)CC1` (stereo not drawn) [Compound 51], the IC50 was 1 nM at hα2C receptor, 15.8 nM at h5-HT transporter and 1.58 nM at hα2A receptor.

As to `COc1cc2c(cc1NC(=O)C1CC1)OCC1C2=NOC1CN1CCN(CC(C)=Cc2ccccc2)CC1` (stereo not drawn) [Compound 52], the IC50 at hα2C receptor is 0.631 nM; on h5-HT transporter, 20 nM; on hα2A receptor it was 3.98 nM.

Consider `COc1cc2c(cc1NC(=O)C1CC1)OCC1C2=NOC1CN1CCN(CC(C)=Cc2cccc(F)c2)CC1` (stereo not drawn) [Compound 53], for which the IC50 on hα2C receptor is 0.631 nM; on h5-HT transporter, 10 nM; on hα2A receptor it was 3.98 nM.

On to `CC(=Cc1ccccc1)CN1CCN(CC2ON=C3c4ccc(NC(=O)c5ccccc5)cc4OCC32)CC1` (stereo not drawn) [Compound 55], for which the figures for the IC50 at hα2C receptor, at h5-HT transporter and at hα2A receptor were 3.16 nM, 25.1 nM and 5.01 nM, respectively.

For the molecule `C/C(=C\c1ccccc1)CN1CCN(CC2ON=C3c4ccc(NC(=O)[C@H]5CCCN5)cc4OCC32)CC1` (stereo partly drawn) [Compound 56], the figures for the IC50 on hα2C receptor, at h5-HT transporter and at hα2A receptor were 0.501 nM, 12.6 nM and 3.16 nM, respectively.

As to `C/C(=C\c1ccccc1)CN1CCN(CC2ON=C3c4ccc(NC(=O)[C@@H]5CCCN5)cc4OCC32)CC1` (stereo partly drawn) [Compound 57], the IC50 on hα2C receptor was 0.631 nM; at h5-HT transporter, 25.1 nM; on hα2A receptor, 5.01 nM.

With `CC(=Cc1ccc(F)cc1)CN1CCN(CC2ON=C3c4ccc(NC(=O)OC(C)(C)C)cc4OCC32)CC1` (stereo not drawn) [Compound 58], the results for the IC50 at hα2C receptor, on h5-HT transporter and on hα2A receptor were 31.6 nM, 31.6 nM and 63.1 nM, respectively.

Regarding `CCNC(=O)Nc1ccc2c(c1)OCC1C2=NOC1CN1CCN(CC(C)=Cc2ccccc2)CC1` (stereo not drawn) [Compound 59], the IC50 at hα2C receptor was 1.26 nM; at h5-HT transporter, 10 nM; on hα2A receptor it was 7.94 nM.

In the case of `CCNC(=O)N(C(=O)NCC)c1ccc2c(c1)OCC1C2=NOC1CN1CCN(CC(C)=Cc2ccc(F)cc2)CC1` (stereo not drawn) [Compound 60], the IC50 on hα2C receptor was 398 nM; on h5-HT transporter, 6310 nM; on hα2A receptor, 3160 nM.

For the molecule `CC(=Cc1ccccc1)CN1CCN(CC2ON=C3c4ccc(NC(=O)c5cccnc5)cc4OCC32)CC1` (stereo not drawn) [Compound 67], the IC50 at hα2C receptor was 1.26 nM; at h5-HT transporter, 12.6 nM; on hα2A receptor, 2 nM.

As for `CC(=Cc1ccc(F)cc1)CN1CCN(CC2ON=C3c4ccc(N5CCC5=O)cc4OCC32)CC1` (stereo not drawn) [Compound 69], the IC50 at hα2C receptor was 1.26 nM; at h5-HT transporter, 20 nM; on hα2A receptor, 3.16 nM.

Regarding `CC(=Cc1ccc(F)cc1)CN1CCN(CC2ON=C3c4ccc(N5CCc6ccccc6C5)cc4OCC32)CC1` (stereo not drawn) [Compound 73], the IC50 on hα2C receptor is 5.01 nM; on h5-HT transporter, 63.1 nM; at hα2A receptor, 50.1 nM.

Regarding `COc1cc2c(cc1N1CCN(C)CC1)OCC1C2=NOC1CN1CCN(CC(C)=Cc2cccc(F)c2)CC1` (stereo not drawn) [Compound 76], the values for the IC50 on hα2C receptor, at h5-HT transporter and on hα2A receptor were 0.794 nM, 3.16 nM and 3.98 nM, respectively.

For `COc1cc2c(cc1N1CCOCC1)OCC1C2=NOC1CN1CCN(CC(C)=Cc2cccc(F)c2)CC1` (stereo not drawn) [Compound 83], the IC50 at hα2C receptor was 2.51 nM; on h5-HT transporter, 15.8 nM; at hα2A receptor it was 7.94 nM.

Consider `COc1cc2c(cc1N1CCOCC1)OCC1C2=NOC1CN1CCN(CC(C)=Cc2ccc(F)cc2)CC1` (stereo not drawn) [Compound 85], for which the IC50 at hα2C receptor is 3.16 nM; on h5-HT transporter, 63.1 nM; on hα2A receptor, 10 nM.

For `COc1cc2c(cc1N)OCC1C2=NOC1CN1CCN(CC(C)=Cc2cccc(F)c2)CC1` (stereo not drawn) [Compound 86], the results for the IC50 on hα2C receptor, on h5-HT transporter and at hα2A receptor were 1.58 nM, 5.01 nM and 6.31 nM, respectively.

In the case of `CNc1ccc2c(c1)OCC1C2=NOC1CN1CCN(CC(C)=Cc2ccccc2)CC1` (stereo not drawn) [Compound 87], the IC50 was 3.16 nM at hα2C receptor, 50.1 nM at h5-HT transporter and 2.51 nM at hα2A receptor.

On to `CNc1cc2c(cc1OC)C1=NOC(CN3CCN(CC(C)=Cc4ccccc4)CC3)C1CO2` (stereo not drawn) [Compound 88], for which the IC50 on hα2C receptor is 1.26 nM; on h5-HT transporter, 20 nM; at hα2A receptor, 5.01 nM.

On to `COc1cc2c(cc1NCCN)OCC1C2=NOC1CN1CCN(CC(C)=Cc2ccc(F)cc2)CC1` (stereo not drawn) [Compound 97], for which the IC50 at hα2C receptor was 6.31 nM; on h5-HT transporter it was 15.8 nM; on hα2A receptor, 31.6 nM.

As to `CCC(CC)Nc1cc2c(cc1OC)C1=NOC(CN3CCN(CC(C)=Cc4ccc(F)cc4)CC3)C1CO2` (stereo not drawn) [Compound 98], the IC50 on hα2C receptor is 100 nM; on h5-HT transporter, 251 nM; on hα2A receptor, 126 nM.

As to `CCC(C)Nc1cc2c(cc1OC)C1=NOC(CN3CCN(CC(C)=Cc4ccc(F)cc4)CC3)C1CO2` (stereo not drawn) [Compound 99], the IC50 is 50.1 nM on hα2C receptor, 158 nM at h5-HT transporter and 50.1 nM at hα2A receptor.
